Test results taken from patent US20070032409A1, “Bradykinin receptor antagonists and uses thereof” (VANDERBILT UNIVERSITY, priority 2005, published 2007).
Where two headings read alike, the source gives them in different places.

What was measured:
[1] = system: pancreatitis-induced hypotension; settings: dog, in vivo; cited from earlier work
[2] = system: adult patients undergoing elective cardiac surgery requiring CPB; experiment: Hemodynamic response (MAP, heart rate) to protamine infusion, double-blind randomized study; type: in vivo, human
Method: The present inventors conducted a double-blind randomized study in sixteen adult male patients undergoing elective cardiac surgery requiring CPB and taking an angiotensin-converting enzyme inhibitor preoperatively. […] Mean arterial pressure (MAP) and tissue-type plasminogen activator (t-PA) activity were measured intraoperatively and before and after protamine.
Sixteen adult patients undergoing elective cardiac surgery requiring CPB and taking an ACE inhibitor preoperatively were studied. Patients were excluded if they had evidence of coagulopathy (INR greater than 1.7), underwent emergency surgery, underwent redo-CABG, had taken a glycoprotein IIb/IIIa antagonist within 2 days of surgery or had renal insufficiency (baseline creatinine>1.5 mg/dl). All patients provided written informed consent.

[3] = system: t-PA antigen; experiment: t-PA antigen in arterial blood, 2-site ELISA
[4] = system: tissue-type plasminogen activator (t-PA) activity; experiment: t-PA activity in arterial blood, chromogenic substrate kit
[5] = system: rats; settings: after i.v. bradykinin, endogenously-released kinins, induction of acute pancreatitis; cited from earlier work
[6] = system: tissue factor and plasminogen activator inhibitor-1; settings: cited from earlier work
[7] = system: bradykinin-induced hypotension; settings: correlated with antagonism of bradykinin-induced hypotension; cited from earlier work
[8] = system: plasminogen activator inhibitor -1 (PAI-1) antigen; experiment: PAI-1 antigen in arterial blood, 2-site ELISA; settings: HOE 140 group N=8
[9] = system: hypotensive transgenic mice that harbor the B2 receptor; settings: mouse, in vivo; cited from earlier work
[10] = system: adult patients undergoing elective cardiac surgery requiring CPB; experiment: Safety: intra- and postoperative patient characteristics; type: in vivo, human; settings: HOE 140 group N=8
Method: Patients were transfused according to the following guidelines: packed red blood cells (PRBC) were transfused for a hematocrit less than 20% during CPB and for a hematocrit less than 25% after CPB, CPB time >120 min, or evidence of end-organ dysfunction. Platelets were transfused in 5-U sets for ongoing microvascular bleeding despite a normalized ACT. Fresh frozen plasma (FFP) was given for continued bleeding only after platelets were given. Transfusion requirements were recorded from the beginning of surgery until hospital discharge.

[11] = system: vasodilation in response to exogenous bradykinin; settings: HOE 140 100 μg/kg; cited from earlier work
[12] = biological target: aminopeptidase M (Homo sapiens, UniProt P15144); settings: cited from earlier work
[13] = biological target: angiotensin-converting enzyme (ACE) (Homo sapiens, UniProt P12821); settings: cited from earlier work
[14] = biological target: T1, carboxypeptidase N (kininase I) (Homo sapiens, UniProt P15169); settings: cited from earlier work
T1 sequence (P15169 21-458): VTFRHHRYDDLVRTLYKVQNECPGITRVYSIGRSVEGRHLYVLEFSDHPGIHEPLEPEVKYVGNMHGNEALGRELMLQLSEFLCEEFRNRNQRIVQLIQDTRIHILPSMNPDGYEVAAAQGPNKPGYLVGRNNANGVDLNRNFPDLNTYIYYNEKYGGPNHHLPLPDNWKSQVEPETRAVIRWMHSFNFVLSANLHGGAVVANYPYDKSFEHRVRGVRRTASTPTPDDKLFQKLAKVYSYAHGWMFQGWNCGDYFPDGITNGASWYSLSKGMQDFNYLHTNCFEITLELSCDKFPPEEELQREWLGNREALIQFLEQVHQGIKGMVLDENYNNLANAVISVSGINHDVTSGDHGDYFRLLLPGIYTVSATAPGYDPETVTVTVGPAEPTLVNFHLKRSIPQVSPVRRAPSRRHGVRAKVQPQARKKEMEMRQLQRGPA
T1 sequence (P22792 22-545 partner): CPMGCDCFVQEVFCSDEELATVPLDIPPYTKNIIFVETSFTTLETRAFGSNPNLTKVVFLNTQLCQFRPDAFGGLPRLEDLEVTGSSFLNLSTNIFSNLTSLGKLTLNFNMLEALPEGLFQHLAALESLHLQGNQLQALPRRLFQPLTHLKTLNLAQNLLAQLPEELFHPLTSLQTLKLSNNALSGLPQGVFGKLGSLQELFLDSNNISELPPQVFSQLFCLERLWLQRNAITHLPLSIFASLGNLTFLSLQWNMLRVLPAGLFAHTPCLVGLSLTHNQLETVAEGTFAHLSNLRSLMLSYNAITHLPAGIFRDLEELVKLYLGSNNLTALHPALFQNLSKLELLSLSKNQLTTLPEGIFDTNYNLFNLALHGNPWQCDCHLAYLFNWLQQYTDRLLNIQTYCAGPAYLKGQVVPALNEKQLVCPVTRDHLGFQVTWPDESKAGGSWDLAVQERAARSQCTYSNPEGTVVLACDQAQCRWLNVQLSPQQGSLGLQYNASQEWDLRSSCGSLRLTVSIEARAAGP

[15] = cited from earlier work
[16] = system: bradykinin; experiment: Arterial bradykinin concentrations before and after protamine, enzyme immunoassay; settings: all patients; for bradykinin concentration after protamine: P=0.006
[17] = biological target: neutral endopeptidase 24.11 (Homo sapiens, UniProt P08473); settings: cited from earlier work
[18] = HOE 140 group N=8, mean±SD, in beats/min (unit assumed)
[19] = protamine 250 mg over 8 min after CPB

Chain of neutral endopeptidase 24.11 (P08473 whole entry, species assumed): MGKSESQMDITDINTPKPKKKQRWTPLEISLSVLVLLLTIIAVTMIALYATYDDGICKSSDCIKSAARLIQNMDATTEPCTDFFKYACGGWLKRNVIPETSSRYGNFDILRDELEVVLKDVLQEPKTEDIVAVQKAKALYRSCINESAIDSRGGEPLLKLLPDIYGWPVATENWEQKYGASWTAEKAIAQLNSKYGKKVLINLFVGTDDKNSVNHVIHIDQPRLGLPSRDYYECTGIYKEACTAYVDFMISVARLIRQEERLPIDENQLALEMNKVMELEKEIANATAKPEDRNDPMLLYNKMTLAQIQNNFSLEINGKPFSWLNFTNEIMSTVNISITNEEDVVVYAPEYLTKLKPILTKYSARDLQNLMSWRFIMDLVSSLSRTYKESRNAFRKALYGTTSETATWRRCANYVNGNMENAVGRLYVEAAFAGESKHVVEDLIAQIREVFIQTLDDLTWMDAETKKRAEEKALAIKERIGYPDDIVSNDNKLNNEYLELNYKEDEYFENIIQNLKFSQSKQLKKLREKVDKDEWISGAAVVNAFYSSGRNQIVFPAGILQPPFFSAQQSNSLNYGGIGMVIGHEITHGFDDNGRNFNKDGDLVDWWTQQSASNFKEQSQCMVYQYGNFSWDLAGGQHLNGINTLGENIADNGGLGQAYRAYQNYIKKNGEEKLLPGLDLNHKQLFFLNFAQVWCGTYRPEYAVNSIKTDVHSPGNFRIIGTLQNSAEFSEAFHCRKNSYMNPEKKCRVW
Chain of aminopeptidase M (P15144 whole entry, species assumed): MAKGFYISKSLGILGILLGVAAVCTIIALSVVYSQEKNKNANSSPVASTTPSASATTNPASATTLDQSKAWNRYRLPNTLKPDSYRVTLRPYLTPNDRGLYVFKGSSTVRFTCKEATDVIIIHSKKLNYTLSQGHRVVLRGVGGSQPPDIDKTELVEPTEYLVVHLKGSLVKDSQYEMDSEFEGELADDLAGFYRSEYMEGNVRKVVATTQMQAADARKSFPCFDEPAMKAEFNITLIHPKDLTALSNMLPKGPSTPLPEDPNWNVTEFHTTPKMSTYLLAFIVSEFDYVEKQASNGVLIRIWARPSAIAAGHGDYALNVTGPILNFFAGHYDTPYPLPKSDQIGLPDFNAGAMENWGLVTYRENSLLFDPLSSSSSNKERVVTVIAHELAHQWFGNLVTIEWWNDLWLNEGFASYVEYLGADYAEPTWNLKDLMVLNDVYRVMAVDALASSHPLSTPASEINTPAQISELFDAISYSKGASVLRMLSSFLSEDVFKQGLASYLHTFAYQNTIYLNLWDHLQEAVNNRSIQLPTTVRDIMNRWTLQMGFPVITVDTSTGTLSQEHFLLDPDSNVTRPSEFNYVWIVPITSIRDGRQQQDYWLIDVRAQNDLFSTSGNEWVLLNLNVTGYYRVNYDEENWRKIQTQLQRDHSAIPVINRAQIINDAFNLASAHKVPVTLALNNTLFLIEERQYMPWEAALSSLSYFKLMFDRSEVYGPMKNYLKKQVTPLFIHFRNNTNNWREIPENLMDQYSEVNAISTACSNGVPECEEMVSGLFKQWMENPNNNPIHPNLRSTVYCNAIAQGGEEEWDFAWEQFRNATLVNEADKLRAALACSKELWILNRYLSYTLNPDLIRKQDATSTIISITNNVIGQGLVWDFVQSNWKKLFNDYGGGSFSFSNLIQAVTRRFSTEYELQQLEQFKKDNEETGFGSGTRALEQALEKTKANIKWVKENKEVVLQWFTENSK
Chain of angiotensin-converting enzyme (ACE) (P12821 30-1306, species assumed): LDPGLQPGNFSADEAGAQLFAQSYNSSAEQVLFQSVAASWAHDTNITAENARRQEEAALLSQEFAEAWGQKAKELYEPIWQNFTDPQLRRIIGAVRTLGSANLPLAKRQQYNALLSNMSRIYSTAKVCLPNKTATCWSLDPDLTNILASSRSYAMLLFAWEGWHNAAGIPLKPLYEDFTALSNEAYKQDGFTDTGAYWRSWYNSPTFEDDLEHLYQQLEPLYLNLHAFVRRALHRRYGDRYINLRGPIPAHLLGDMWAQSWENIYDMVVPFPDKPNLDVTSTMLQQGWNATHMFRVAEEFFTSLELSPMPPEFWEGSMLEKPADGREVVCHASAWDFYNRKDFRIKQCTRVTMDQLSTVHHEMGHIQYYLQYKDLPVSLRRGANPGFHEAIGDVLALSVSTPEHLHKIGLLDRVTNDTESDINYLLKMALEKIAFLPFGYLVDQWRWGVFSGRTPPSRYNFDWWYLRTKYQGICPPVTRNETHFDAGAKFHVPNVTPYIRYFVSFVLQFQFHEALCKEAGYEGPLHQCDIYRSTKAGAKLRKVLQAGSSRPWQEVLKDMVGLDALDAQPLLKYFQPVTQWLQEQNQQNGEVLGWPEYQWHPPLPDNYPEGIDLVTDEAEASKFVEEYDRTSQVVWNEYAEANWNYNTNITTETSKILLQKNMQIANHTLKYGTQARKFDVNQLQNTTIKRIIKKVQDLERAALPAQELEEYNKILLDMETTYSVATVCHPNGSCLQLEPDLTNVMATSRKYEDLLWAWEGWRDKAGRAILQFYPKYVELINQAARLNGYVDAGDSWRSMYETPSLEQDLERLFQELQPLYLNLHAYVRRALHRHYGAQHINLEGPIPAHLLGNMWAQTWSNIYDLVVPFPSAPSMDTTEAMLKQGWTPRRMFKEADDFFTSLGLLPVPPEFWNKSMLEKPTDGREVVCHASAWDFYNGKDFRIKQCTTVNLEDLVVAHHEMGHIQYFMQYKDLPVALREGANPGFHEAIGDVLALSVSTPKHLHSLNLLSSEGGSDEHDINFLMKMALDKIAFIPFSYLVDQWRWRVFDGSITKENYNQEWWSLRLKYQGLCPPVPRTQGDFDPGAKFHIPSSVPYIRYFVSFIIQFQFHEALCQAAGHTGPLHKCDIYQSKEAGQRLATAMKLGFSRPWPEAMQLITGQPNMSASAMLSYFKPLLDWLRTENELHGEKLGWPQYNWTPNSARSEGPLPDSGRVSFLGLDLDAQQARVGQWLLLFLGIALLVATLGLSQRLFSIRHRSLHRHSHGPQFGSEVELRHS

## NC(N)=NCCC[C@@H](N)C(=O)N[C@@H](CCCN=C(N)N)C(=O)N1CCC[C@H]1C(=O)N1C[C@H](O)C[C@H]1C(=O)NCC(=O)N[C@@H](Cc1cccs1)C(=O)N[C@@H](CO)C(=O)N1Cc2ccccc2C[C@@H]1C(=O)N1[C@H](C(=O)N[C@@H](CCCN=C(N)N)C(=O)O)C[C@@H]2CCCC[C@@H]21 [HOE 140]
[1]
  effect on pancreatitis-induced hypotension: improvement of the hypotension in some animals
  effect on release of bradykinin and beta-endorphin: inhibited
[2]; HOE 140 100 μg/kg i.v. before protamine, N=8, mean±SD
  MAP during protamine infusion (nadir): 69.6±3.4 mmHg
[2]; HOE 140 100 μg/kg i.v. over one-half hour at end of CPB before protamine, N=8, mean±SD
  MAP at the start of the protamine infusion (pre-protamine): 74.3±10.6 mmHg
[2]; [18]
  heart rate after protamine: 81.0±14.0
  heart rate prior to protamine: 91.4±9.5
[2]; P=0.022, ANOVA, versus saline
  effect on decrease in MAP during protamine infusion: significantly blunted
[2]; in the presence of HOE 140
  reduction of mean arterial pressure by protamine: about 6%
[3]; HOE 140 group N=8
  t-PA antigen after protamine administration: 22.7 ± 9.1 ng/mL
  t-PA antigen after study drug infusion, before protamine: 20.1 ± 6.1 ng/mL
[3]; HOE 140 group, intraoperative, N=8
  t-PA antigen before study drug infusion: 23.4 ± 12.6 ng/mL
[4]; 60 min after initiation of CPB, prior to receiving HOE 140, N=8
  t-PA activity, intraoperative: 3.59±0.88 IU/ml
[4]; after HOE 140 administration (100 μg/kg i.v.), before protamine, N=8
  t-PA activity, pre-protamine: 1.67±1.18 IU/ml
[4]; after protamine infusion in HOE 140 group, N=8
  t-PA activity, post-protamine: 0.77±0.74 IU/ml
[4]; before initiation of CPB, prior to HOE 140, N=8
  t-PA activity, baseline: 0.42±0.29 IU/ml
[4]; during HOE 140 administration, P=0.036 compared to saline
  change in t-PA activity: −1.92±0.94 IU/ml
[5]
  effect on decreases in blood pressure: blocks
[6]
  effect on bradykinin-increased expression of tissue factor and PAI-1: suppressed
[7]
  effect on blood pressure: increased blood pressure
[8]
  PAI-1 antigen after protamine administration: 27.4 ± 15.5 ng/mL
  PAI-1 antigen before protamine administration: 20.2 ± 17.1 ng/mL
  PAI-1 antigen on postoperative day 1: 32.4 ± 10.1 ng/mL
[9]
  effect on blood pressure: restoring blood pressure to normal levels
[10]
  CT 4 hours (chest tube output): 299.4 ± 233.0 mL
  CT 24 hours (chest tube output): 759.6 ± 276.4 mL
  Fresh frozen plasma transfusion: 0.4 ± 1.1 Units
  New onset atrial fibrillation: 1(12.5) N(%)
  PRBC transfusion: 4.4 ± 4.0 Units
  Platelet transfusion: 275 ± 177 mL
  Time to extubation >10 hours: 2(25) N(%)
[11]
  effect on vasodilation in response to exogenous bradykinin: prevents vasodilation

## Protamine: highly basic polycationic polypeptide given at the end of CPB to reverse the anticoagulation effects of heparin (SEQ ID NO:1) (MARYRCCRSQSRSRYYRQRQRSRRRRRRSCQTRRRAMRCCRPRYRPRCRRH)
[12]
  inhibition of aminopeptidase M: does not inhibit
[13]
  inhibition of angiotensin-converting enzyme (ACE): does not inhibit
[14]
  inhibition of carboxypeptidase N (kininase I): inhibits
[15]; after i.v. administration
  time to neutralization of heparin: ≤ 5 min
[15]; heparin derived from intestinal mucosa
  heparin activity neutralized per mg of protamine sulfate: about 115 USP units
[15]; heparin derived from lung tissue
  heparin activity neutralized per mg of protamine sulfate: approximately 90 USP units
[16]
  bradykinin concentration before protamine: 6.3±4.3 finol/ml
  bradykinin concentration after protamine: 12.2±9.8 finol/ml
[16]; [19]
  bradykinin concentration before protamine: 6.3 ± 4.3 fmol/mL
  bradykinin concentration after protamine: 12.2 ± 9.8 fmol/mL
[17]
  inhibition of neutral endopeptidase 24.11: does not inhibit
